# Reference: patent US10626144B2, “Peptide derivatives and uses thereof” (Nosopharm, priority 2014, dated 2020)
# Numbered stars: 1 amine (or outer) side, 2 acyl side, 3 side chain; on linkers, the order of the positions; unused ones are H or OH. Square brackets hold non-standard residues; d marks the D form. Peptide text beside a SMILES is read from it. * marks the point of attachment. Pro(trans-4-F) = O=C(O)[C@@H]1C[C@@H](F)CN1; Abu(4,4,4-F3) = N[C@@H](CC(F)(F)F)C(=O)O; Phe(4-CN) = N#Cc1ccc(C[C@H](N)C(=O)O)cc1; Phe(3-F) = N[C@@H](Cc1cccc(F)c1)C(=O)O; Phe(3-Me) = Cc1cccc(C[C@H](N)C(=O)O)c1; Dab(3S-OH) = NC[C@H](O)[C@H](N)C(=O)O; 3Pal = N[C@@H](Cc1cccnc1)C(=O)O; 4Pal = N[C@@H](Cc1ccncc1)C(=O)O; ΔZArg = N=C(N)NCC/C=C(\N)C(=O)O; X2 = CC=C(N[*:1])C(=O)[*:2]; dOrn = NCCC[C@@H](N)C(=O)O; Pip = O=C(O)[C@@H]1CCCCN1; NH(CH2)5NH2 = NCCCCCN*; NH(CH2)4NH2 = NCCCCN*
# Legend:
# Assay in all cases: MIC, broth microdilution (CLSI), reference strain
# Conditions in all cases: CAMHB
# [1] = test system: Pseudomonas aeruginosa ATCC 27853
# [2] = test system: Escherichia coli ATCC 25922
# [3] = test system: Staphylococcus aureus ATCC 13709
# [4] = test system: Acinetobacter baumannii ATCC 19606
smiles,measurement,setting,value
N=C(N)NCC/C=C(\NC(=O)[C@H](CCCCN)NC(=O)[C@H](Cc1cccc(F)c1)NC(=O)[C@@H]1CCCN1C(=O)[C@@H](CCCN)NC(=O)CNC(=O)[C@@H](NC(=O)[C@@H](NC(=O)[C@@H](N)CCCCN)[C@@H](O)CN)[C@@H](O)CN)C(=O)O [22.36] (H-K[Dab(3S-OH)][Dab(3S-OH)]G[dOrn]P[Phe(3-F)]K[ΔZArg]-OH),Pa: MIC Pseudomonas aeruginosa ATCC 27853,[1],− (>32 μg/mL)
same,Ec: MIC Escherichia coli ATCC 25922,[2],++ (≤8 μg/mL)
same,Sa: MIC Staphylococcus aureus ATCC 13709,[3],++ (≤8 μg/mL)
same,Ab: MIC Acinetobacter baumannii ATCC 19606,[4],− (>32 μg/mL)
Cc1cccc(C[C@H](NC(=O)[C@@H]2CCCN2C(=O)[C@@H](CCCN)NC(=O)CNC(=O)[C@@H](NC(=O)[C@@H](NC(=O)[C@@H](N)CCCCN)[C@@H](O)CN)[C@@H](O)CN)C(=O)N[C@@H](CCCCN)C(=O)N/C(=C\CCNC(=N)N)C(=O)O)c1 [22.37] (H-K[Dab(3S-OH)][Dab(3S-OH)]G[dOrn]P[Phe(3-Me)]K[ΔZArg]-OH),Pa: MIC Pseudomonas aeruginosa ATCC 27853,[1],− (>32 μg/mL)
same,Ec: MIC Escherichia coli ATCC 25922,[2],+ (≤32 μg/mL)
same,Sa: MIC Staphylococcus aureus ATCC 13709,[3],++ (≤8 μg/mL)
same,Ab: MIC Acinetobacter baumannii ATCC 19606,[4],− (>32 μg/mL)
N#Cc1ccc(C[C@H](NC(=O)[C@@H]2CCCN2C(=O)[C@@H](CCCN)NC(=O)CNC(=O)[C@@H](NC(=O)[C@@H](NC(=O)[C@@H](N)CCCCN)[C@@H](O)CN)[C@@H](O)CN)C(=O)N[C@@H](CCCCN)C(=O)N/C(=C\CCNC(=N)N)C(=O)O)cc1 [22.38] (H-K[Dab(3S-OH)][Dab(3S-OH)]G[dOrn]P[Phe(4-CN)]K[ΔZArg]-OH),Pa: MIC Pseudomonas aeruginosa ATCC 27853,[1],− (>32 μg/mL)
same,Ec: MIC Escherichia coli ATCC 25922,[2],++ (≤8 μg/mL)
same,Sa: MIC Staphylococcus aureus ATCC 13709,[3],++ (≤8 μg/mL)
same,Ab: MIC Acinetobacter baumannii ATCC 19606,[4],− (>32 μg/mL)
COc1ccc(C[C@H](NC(=O)[C@@H]2CCCN2C(=O)[C@@H](CCCN)NC(=O)CNC(=O)[C@@H](NC(=O)[C@@H](NC(=O)[C@@H](N)CCCCN)[C@@H](O)CN)[C@@H](O)CN)C(=O)N[C@@H](CCCCN)C(=O)N/C(=C\CCNC(=N)N)C(=O)O)cc1 [22.39] (H-K[Dab(3S-OH)][Dab(3S-OH)]G[dOrn]PY(Me)K[ΔZArg]-OH),Pa: MIC Pseudomonas aeruginosa ATCC 27853,[1],− (>32 μg/mL)
same,Ec: MIC Escherichia coli ATCC 25922,[2],+ (≤32 μg/mL)
same,Sa: MIC Staphylococcus aureus ATCC 13709,[3],++ (≤8 μg/mL)
same,Ab: MIC Acinetobacter baumannii ATCC 19606,[4],− (>32 μg/mL)
"N=C(N)NCC/C=C(\NC(=O)[C@H](CCCCN)NC(=O)[C@H](CC(F)(F)F)NC(=O)[C@@H]1CCCN1C(=O)[C@@H](CCCN)NC(=O)CNC(=O)[C@@H](NC(=O)[C@@H](NC(=O)[C@@H](N)CCCCN)[C@@H](O)CN)[C@@H](O)CN)C(=O)O [22.40] (H-K[Dab(3S-OH)][Dab(3S-OH)]G[dOrn]P[Abu(4,4,4-F3)]K[ΔZArg]-OH)",Pa: MIC Pseudomonas aeruginosa ATCC 27853,[1],− (>32 μg/mL)
same,Ec: MIC Escherichia coli ATCC 25922,[2],+ (≤32 μg/mL)
same,Sa: MIC Staphylococcus aureus ATCC 13709,[3],++ (≤8 μg/mL)
same,Ab: MIC Acinetobacter baumannii ATCC 19606,[4],− (>32 μg/mL)
N=C(N)NCC/C=C(\NC(=O)[C@H](CCCCN)NC(=O)[C@H](Cc1c[nH]c2ccccc12)NC(=O)[C@@H]1CCCN1C(=O)[C@@H](CCCN)NC(=O)CNC(=O)[C@@H](NC(=O)[C@@H](NC(=O)[C@@H](N)CCCCN)[C@@H](O)CN)[C@@H](O)CN)C(=O)O [22.41] (H-K[Dab(3S-OH)][Dab(3S-OH)]G[dOrn]PWK[ΔZArg]-OH),Pa: MIC Pseudomonas aeruginosa ATCC 27853,[1],− (>32 μg/mL)
same,Ec: MIC Escherichia coli ATCC 25922,[2],++ (≤8 μg/mL)
same,Sa: MIC Staphylococcus aureus ATCC 13709,[3],++ (≤8 μg/mL)
same,Ab: MIC Acinetobacter baumannii ATCC 19606,[4],− (>32 μg/mL)
N=C(N)NCC/C=C(\NC(=O)[C@H](CCCCN)NC(=O)[C@H](Cc1cnc[nH]1)NC(=O)[C@@H]1CCCN1C(=O)[C@@H](CCCN)NC(=O)CNC(=O)CNC(=O)[C@@H](NC(=O)[C@@H](N)CCCCN)[C@@H](O)CN)C(=O)N[C@@H](CCCCN)C(=O)NCCCCN [23.1] (H-K[Dab(3S-OH)]GG[dOrn]PHK[ΔZArg]K-{NH(CH2)4NH2}),Pa: MIC Pseudomonas aeruginosa ATCC 27853,[1],− (>32 μg/mL)
same,Ec: MIC Escherichia coli ATCC 25922,[2],++ (≤8 μg/mL)
same,Sa: MIC Staphylococcus aureus ATCC 13709,[3],++ (≤8 μg/mL)
same,Ab: MIC Acinetobacter baumannii ATCC 19606,[4],− (>32 μg/mL)
C[C@H](NC(=O)[C@@H](NC(=O)[C@@H](N)CCCCN)[C@@H](O)CN)C(=O)NCC(=O)N[C@H](CCCN)C(=O)N1CCC[C@H]1C(=O)N[C@@H](Cc1cnc[nH]1)C(=O)N[C@@H](CCCCN)C(=O)N/C(=C\CCNC(=N)N)C(=O)N[C@@H](CCCCN)C(N)=O [24.2] (H-K[Dab(3S-OH)]AG[dOrn]PHK[ΔZArg]K-NH2),Pa: MIC Pseudomonas aeruginosa ATCC 27853,[1],+ (≤32 μg/mL)
same,Ec: MIC Escherichia coli ATCC 25922,[2],++ (≤8 μg/mL)
same,Sa: MIC Staphylococcus aureus ATCC 13709,[3],++ (≤8 μg/mL)
same,Ab: MIC Acinetobacter baumannii ATCC 19606,[4],− (>32 μg/mL)
C[C@H](NC(=O)[C@@H](NC(=O)[C@@H](N)CCCCN)[C@@H](O)CN)C(=O)NCC(=O)N[C@H](CCCN)C(=O)N1CCCC[C@H]1C(=O)N[C@@H](Cc1cnc[nH]1)C(=O)N[C@@H](CCCCN)C(=O)N/C(=C\CCNC(=N)N)C(=O)N[C@@H](CCCCN)C(=O)NCCCCN [24.3] (H-K[Dab(3S-OH)]AG[dOrn][Pip]HK[ΔZArg]K-{NH(CH2)4NH2}),Pa: MIC Pseudomonas aeruginosa ATCC 27853,[1],+ (≤32 μg/mL)
same,Ec: MIC Escherichia coli ATCC 25922,[2],++ (≤8 μg/mL)
same,Sa: MIC Staphylococcus aureus ATCC 13709,[3],++ (≤8 μg/mL)
same,Ab: MIC Acinetobacter baumannii ATCC 19606,[4],− (>32 μg/mL)
C[C@H](NC(=O)[C@@H](NC(=O)[C@@H](N)CCCCN)[C@@H](O)CN)C(=O)NCC(=O)N[C@H](CCCN)C(=O)N1C[C@H](F)C[C@H]1C(=O)N[C@@H](Cc1cnc[nH]1)C(=O)N[C@@H](CCCCN)C(=O)N/C(=C\CCNC(=N)N)C(=O)N[C@@H](CCCCN)C(=O)NCCCCN [24.4] (H-K[Dab(3S-OH)]AG[dOrn][Pro(trans-4-F)]HK[ΔZArg]K-{NH(CH2)4NH2}),Pa: MIC Pseudomonas aeruginosa ATCC 27853,[1],+ (≤32 μg/mL)
same,Ec: MIC Escherichia coli ATCC 25922,[2],++ (≤8 μg/mL)
same,Sa: MIC Staphylococcus aureus ATCC 13709,[3],++ (≤8 μg/mL)
same,Ab: MIC Acinetobacter baumannii ATCC 19606,[4],+ (≤32 μg/mL)
C[C@H](NC(=O)[C@@H](NC(=O)[C@@H](N)CCCCN)[C@@H](O)CN)C(=O)NCC(=O)N[C@H](CCCN)C(=O)N1CCC[C@H]1C(=O)N[C@@H](Cc1cnc[nH]1)C(=O)N[C@@H](CCCCN)C(=O)N/C(=C\CCNC(=N)N)C(=O)N[C@@H](CCCCN)C(=O)NCCCCCN [24.6] (H-K[Dab(3S-OH)]AG[dOrn]PHK[ΔZArg]K-{NH(CH2)5NH2}),Pa: MIC Pseudomonas aeruginosa ATCC 27853,[1],++ (≤8 μg/mL)
same,Ec: MIC Escherichia coli ATCC 25922,[2],++ (≤8 μg/mL)
same,Sa: MIC Staphylococcus aureus ATCC 13709,[3],++ (≤8 μg/mL)
same,Ab: MIC Acinetobacter baumannii ATCC 19606,[4],+ (≤32 μg/mL)
C[C@H](NC(=O)/C(=C/CCNC(=N)N)NC(=O)[C@H](CCCCN)NC(=O)[C@H](Cc1cnc[nH]1)NC(=O)[C@@H]1CCCN1C(=O)[C@@H](CCCN)NC(=O)CNC(=O)[C@H](C)NC(=O)[C@@H](NC(=O)[C@@H](N)CCCCN)[C@@H](O)CN)C(N)=O [24.7] (H-K[Dab(3S-OH)]AG[dOrn]PHK[ΔZArg]A-NH2),Pa: MIC Pseudomonas aeruginosa ATCC 27853,[1],− (>32 μg/mL)
same,Ec: MIC Escherichia coli ATCC 25922,[2],++ (≤8 μg/mL)
same,Sa: MIC Staphylococcus aureus ATCC 13709,[3],++ (≤8 μg/mL)
same,Ab: MIC Acinetobacter baumannii ATCC 19606,[4],− (>32 μg/mL)
CC=C(NC(=O)[C@H](CCCCN)NC(=O)[C@H](Cc1cnc[nH]1)NC(=O)[C@@H]1CCCN1C(=O)[C@@H](CCCN)NC(=O)CNC(=O)[C@H](C)NC(=O)[C@@H](NC(=O)[C@@H](N)CCCCN)[C@@H](O)CN)C(=O)N[C@@H](CCCCN)C(=O)NCCCCN [24.8] (H-K[Dab(3S-OH)]AG[dOrn]PHK[X2]K-{NH(CH2)4NH2}),Pa: MIC Pseudomonas aeruginosa ATCC 27853,[1],− (>32 μg/mL)
same,Ec: MIC Escherichia coli ATCC 25922,[2],+ (≤32 μg/mL)
same,Sa: MIC Staphylococcus aureus ATCC 13709,[3],++ (≤8 μg/mL)
same,Ab: MIC Acinetobacter baumannii ATCC 19606,[4],− (>32 μg/mL)
CC(=O)NCCCC[C@H](N)C(=O)N[C@H](C(=O)N[C@@H](C)C(=O)NCC(=O)N[C@H](CCCN)C(=O)N1CCC[C@H]1C(=O)N[C@@H](Cc1cnc[nH]1)C(=O)N[C@@H](CCCCN)C(=O)N/C(=C\CCNC(=N)N)C(=O)N[C@@H](CCCCN)C(=O)NCCCCN)[C@@H](O)CN [24.9] (H-K(Ac)[Dab(3S-OH)]AG[dOrn]PHK[ΔZArg]K-{NH(CH2)4NH2}),Pa: MIC Pseudomonas aeruginosa ATCC 27853,[1],− (>32 μg/mL)
same,Ec: MIC Escherichia coli ATCC 25922,[2],− (>32 μg/mL)
same,Sa: MIC Staphylococcus aureus ATCC 13709,[3],+ (≤32 μg/mL)
same,Ab: MIC Acinetobacter baumannii ATCC 19606,[4],− (>32 μg/mL)
C[C@H](NC(=O)[C@@H](NC(=O)[C@@H](N)CCCCN)[C@@H](O)CN)C(=O)NCC(=O)N[C@H](CCCN)C(=O)N1CCC[C@H]1C(=O)N[C@@H](Cc1cccnc1)C(=O)N[C@@H](CCCCN)C(=O)N/C(=C\CCNC(=N)N)C(=O)N[C@@H](CCCCN)C(=O)NCCCCN [24.18] (H-K[Dab(3S-OH)]AG[dOrn]P[3Pal]K[ΔZArg]K-{NH(CH2)4NH2}),Pa: MIC Pseudomonas aeruginosa ATCC 27853,[1],− (>32 μg/mL)
same,Ec: MIC Escherichia coli ATCC 25922,[2],++ (≤8 μg/mL)
same,Sa: MIC Staphylococcus aureus ATCC 13709,[3],++ (≤8 μg/mL)
same,Ab: MIC Acinetobacter baumannii ATCC 19606,[4],− (>32 μg/mL)
C[C@H](NC(=O)[C@@H](NC(=O)[C@@H](N)CCCCN)[C@@H](O)CN)C(=O)NCC(=O)N[C@H](CCCN)C(=O)N1CCC[C@H]1C(=O)N[C@@H](Cc1ccncc1)C(=O)N[C@@H](CCCCN)C(=O)N/C(=C\CCNC(=N)N)C(=O)N[C@@H](CCCCN)C(=O)NCCCCN [24.19] (H-K[Dab(3S-OH)]AG[dOrn]P[4Pal]K[ΔZArg]K-{NH(CH2)4NH2}),Pa: MIC Pseudomonas aeruginosa ATCC 27853,[1],+ (≤32 μg/mL)
same,Ec: MIC Escherichia coli ATCC 25922,[2],++ (≤8 μg/mL)
same,Sa: MIC Staphylococcus aureus ATCC 13709,[3],++ (≤8 μg/mL)
same,Ab: MIC Acinetobacter baumannii ATCC 19606,[4],− (>32 μg/mL)
